Molecules are shown by their SMILES. Calls of active or inactive are those of the source. How the calls were made is not given here.

This data set concerns CCRIS mutagenicity, Ames/micronucleus/aberration tests. The experiment in a line: CCRIS mutagenicity studies.
Where [1] appears, read: Test System: AMES SALMONELLA TYPHIMURIUM, Strain/Indicator: TA98, Metabolic Activation: NONE, Method: STANDARD PLATE.
The mark [2] stands for this setting: Test System: AMES SALMONELLA TYPHIMURIUM, Strain/Indicator: TA98, Metabolic Activation: RAT, LIVER, S-9, AROCLOR 1254, Method: STANDARD PLATE.
[3] abbreviates: Test System: AMES SALMONELLA TYPHIMURIUM, Strain/Indicator: TA100, Metabolic Activation: NONE, Method: STANDARD PLATE.
Setting [4] is: Test System: AMES SALMONELLA TYPHIMURIUM, Strain/Indicator: TA100, Metabolic Activation: RAT, LIVER, S-9, AROCLOR 1254, Method: STANDARD PLATE.
Where [5] appears, read: Test System: AMES SALMONELLA TYPHIMURIUM, Strain/Indicator: TA1535, Metabolic Activation: NONE, Method: STANDARD PLATE.
Where [6] appears, read: Test System: AMES SALMONELLA TYPHIMURIUM, Strain/Indicator: TA1535, Metabolic Activation: RAT, LIVER, S-9, AROCLOR 1254, Method: STANDARD PLATE.
The mark [7] stands for this setting: Test System: AMES SALMONELLA TYPHIMURIUM, Strain/Indicator: TA1537, Metabolic Activation: NONE, Method: STANDARD PLATE.
Setting [8] is: Test System: AMES SALMONELLA TYPHIMURIUM, Strain/Indicator: TA1537, Metabolic Activation: RAT, LIVER, S-9, AROCLOR 1254, Method: STANDARD PLATE.
[9] abbreviates: Test System: AMES SALMONELLA TYPHIMURIUM, Strain/Indicator: TA1538, Metabolic Activation: NONE, Method: STANDARD PLATE.
[10] abbreviates: Test System: AMES SALMONELLA TYPHIMURIUM, Strain/Indicator: TA1538, Metabolic Activation: RAT, LIVER, S-9, AROCLOR 1254, Method: STANDARD PLATE.
[11] abbreviates: Test System: MOUSE LYMPHOMA, Strain/Indicator: L5178Y (TK+/TK-), Metabolic Activation: NONE, Method: SUSPENSION/PLATE.

`Nc1ncn([C@@H]2O[C@H](CO)[C@@H](O)[C@@H]2O)c(=O)n1`: the mutagenic call by setting is: (Test System: AMES SALMONELLA TYPHIMURIUM, Strain/Indicator: TA98, Metabolic Activation: HAMSTER, LIVER, S-9, AROCLOR 1254, Method: STANDARD PLATE) “inactive; negative”; under setting [1], “inactive; negative”; under setting [2], “inactive; negative”; (Test System: AMES SALMONELLA TYPHIMURIUM, Strain/Indicator: TA100, Metabolic Activation: HAMSTER, LIVER, S-9, AROCLOR 1254, Method: STANDARD PLATE) “inactive; negative”; under setting [3], “inactive; negative”; under setting [4], “inactive; negative”. Also, the mutagenic call reads like this: (Test System: AMES SALMONELLA TYPHIMURIUM, Strain/Indicator: TA1535, Metabolic Activation: HAMSTER, LIVER, S-9, AROCLOR 1254, Method: STANDARD PLATE) “inactive; negative”; under setting [5], “inactive; negative”; under setting [6], “inactive; negative”; (Test System: AMES SALMONELLA TYPHIMURIUM, Strain/Indicator: TA1537, Metabolic Activation: HAMSTER, LIVER, S-9, AROCLOR 1254, Method: STANDARD PLATE) “inactive; negative”; under setting [7], “inactive; negative”; under setting [8], “inactive; negative”. In addition, the mutagenic call by setting is: (Test System: AMES SALMONELLA TYPHIMURIUM, Strain/Indicator: TA1538, Metabolic Activation: HAMSTER, LIVER, S-9, AROCLOR 1254, Method: STANDARD PLATE) “inactive; negative”; under setting [9], “inactive; negative”; under setting [10], “inactive; negative”; under setting [11], “active; positive. reevaluation of results: inconclusive”; (Test System: MOUSE LYMPHOMA, Strain/Indicator: L5178Y (TK+/TK-), Metabolic Activation: RAT, LIVER, S-9, AROCLOR 1254, Method: SUSPENSION/PLATE) “inactive; negative. reevaluation of results: inconclusive”.
For the molecule `CC(=O)Nc1ccc(/C=C/c2ccccc2)cc1`, the mutagenic call is, setting by setting: (Test System: CHINESE HAMSTER OVARY, Strain/Indicator: AS52/6-THIOGUANINE, Metabolic Activation: NONE) “inactive; negative”; (Test System: CHINESE HAMSTER OVARY, Strain/Indicator: AS52/6-THIOGUANINE, Metabolic Activation: RAT LIVER S-9, 2-ACETYLAMINOFLUORENE) “active; positive”.
With `CCCCN(C(CCC)OC(C)=O)[N+](=O)[O-]` (stereo unspecified), the mutagenic call (Test System: E. COLI, Strain/Indicator: WP2 (HCR-), Metabolic Activation: NONE) was “active; positive”.
`C=CC`: the mutagenic call is, setting by setting: under setting [11], “inactive; negative”; (Test System: MOUSE LYMPHOMA, Strain/Indicator: L5178Y (TK+/TK-), Metabolic Activation: RAT, LIVER, S-9, Method: SUSPENSION/PLATE) “inactive; negative”.
Consider `Cc1ccc2c(c1)c(=NC(=O)CCCCl)sn2C(=O)CCCCl`, for which the mutagenic call (Test System: AMES SALMONELLA TYPHIMURIUM, Strain/Indicator: TA100, Metabolic Activation: S-9, Method: STANDARD PLATE) was “inactive; negative”.
In the case of `CC(C)(CO)[C@@H](O)C(=O)NCCCO`, the mutagenic call was “inactive; negative” under setting [1]; “inactive; negative” under setting [2]; “inactive; negative” under setting [3]; “inactive; negative” under setting [4]; “inactive; negative” under setting [5]; “inactive; negative” under setting [6]. The mutagenic call is “inactive; negative” under setting [7]; “inactive; negative” under setting [8]; “inactive; negative” under setting [9]; “inactive; negative” under setting [10]; “inactive; negative” (Test System: E. COLI, Strain/Indicator: WP2, Metabolic Activation: NONE, Method: STANDARD PLATE); “inactive; negative” (Test System: E. COLI, Strain/Indicator: WP2, Metabolic Activation: RAT, LIVER, S-9, AROCLOR 1254, Method: STANDARD PLATE).
As to `CC\C=C/C=C\C=C/C=C\C=C/OCC(C)O` (stereo unspecified), the mutagenic call (Test System: AMES SALMONELLA TYPHIMURIUM, Strain/Indicator: TA100, Metabolic Activation: NONE, Method: PREINCUBATION) is “active; positive”.
